One data set relates to human Notch 3. The experiment in a line: Notch-CBF1 Transactivation Assay (Notch 3). It is filed as cell-based. Conditions: read-out: Notch 3 (IC50); HeLa cells transfected with truncated Notch 3 and CBF1 luciferase reporter; 18 hours; average of N experiments. The source says: (§1) Notch-CBF1 Transactivation Assay
(§2) The Notch-CBF1 (C-promoter binding factor I) cell based transactivation assay is based on the ability of the released Notch intracellular domain fragments (NICDs) to function as transcription factors in conjunction with CBF1 and other nuclear factors. Luciferase assays were used to measure the antagonism of Notch-CBF1 transcriptional activity. HeLa cervical cancer cells are transiently co-transfected with pCDNA3.1/Hygro plasmids containing truncated Notch 1, Notch 2, Notch 3, or Notch 4 receptors and a PGL3 luciferase reporter vector containing 4 copies of CBF1 binding site. The cells were then tested for Notch-CBF1 activity in the absence or presence of test compounds. HeLa cells, maintained in DMEM (high glucose with HEPES), 1× glutamine/penicillin/streptomycin and 10% Fetal Bovine serum, were transiently transfected in a T175 Flask (4.5×10^6 cells/flask) using the Monster Transfection Kit (Minis #MIR2906) according to manufacturers specifications. Table 5 denotes respective DNA quantity for the transfections.
(§3) Assay media (5 μL) containing test compounds in final concentrations ranging from 5 μM to 8.4×10^−5 μM (3 fold serial dilutions) were added to the cells and the cell plates were then incubated for 18 hours at 37° C. and 5% CO2. Control wells contained DMSO vehicle (total counts) or 0.5 μM of an in-house small molecule inhibitor (background counts). Duplicates were used for each sample. Luciferase activity was measured after a 20-minute incubation with 50 μl STEADY-GLO® luciferase reagents according to manufacturer's specifications (Promega, Cat. #E2550) and analyzed by Envision plate reader (PerkinElmer, Boston, Mass.).
(§4) The antagonist effect of compounds was expressed as 100×[1−(average sample−average background)/(average total−average background)] where sample is the luciferase activity in the presence of test compound, background is equal to the luciferase activity in the presence of the small molecule inhibitor control and the total is signal induced in DMSO wells.

Data set [1] in a line: Human metabolic stability half-life assay. The data set is classed as in vitro ADME. Particulars: pH 7.4; human liver microsomes, NADPH, 0.5 μM compound, 45-minute time course; read-out: HLM (t1/2, min). An excerpt: Metabolic Stability Half-Life Panel
For orientation: Microsomes from liver hold many membrane-bound enzymes, among them those of drug oxidation.

For a further data set, the system named is human Notch 1. The experiment in a line: Notch-CBF1 Transactivation Assay (Notch 1). Conditions: read-out: Notch 1 (IC50); HeLa cells transfected with truncated Notch 1 and CBF1 luciferase reporter; 18 hours; average of N experiments. The data set is classed as cell-based.
Text: as §1, §2, §3, §4

In another data set the test system is TALL-1. Briefly: Human Tumor Xenograft Models in Mice (TALL-1). It is filed as in vivo. As for the experimental part:
Human Tumor Xenograft Models in Mice
Mice were fed food and water ad libitum.
When death occurred, the day of death was recorded.
A general note: A xenograft is tissue or cells of one species grown in another, often human tumour cells in immunodeficient mice.

The structures appear in SMILES notation.

Consider `Cc1cccc2c1NC(=O)[C@@H](NC(=O)[C@H](CCC(F)(F)F)[C@H](CC1CC(F)(F)C1)C(N)=O)N=C2c1ccccc1` [Example 1, (2R,3S)-3-((3,3-Difluorocyclobutyl)methyl)-N-((3S)-9-methyl-2-oxo-5-phenyl-2,3-dihydro-1H-1,4-benzodiazepin-3-yl)-2-(3,3,3-trifluoropropyl)succinamide], for which the IC50 in the data set with human Notch 3 was 2.4 nM; with human Notch 1 it was 3 nM. Further, the half-life at 0.5 µM in data set [1] was 60 min. Moreover, in the data set on TALL-1 (Human Tumor Xenograft Models in mice, oral), the “antitumor activity with oral administration (PO)” value was “showed antitumor activity”. Also, the “Antitumor Activity in TALL-1 (LCK) BID dosing” value in the data set with TALL-1 (Oral Administration, Dose 10, Schedule BIDx10, LCK = Log Cell Kill, NOD-SCID mice) worked out at 2.7.
Take `NC(=O)[C@@H](CC1CC(F)(F)C1)[C@@H](CCC(F)(F)F)C(=O)N[C@H]1N=C(c2ccccc2)c2ccccc2NC1=O` [Example 15, (2R,3S)-3-((3,3-Difluorocyclobutyl)methyl)-N-((3S)-2-oxo-5-phenyl-2,3-dihydro-1H-1,4-benzodiazepin-3-yl)-2-(3,3,3-trifluoropropyl)succinamide]: the IC50 in the data set with human Notch 3 is 3.8 nM; with human Notch 1, 4.4 nM. Moreover, in data set [1], the half-life at 0.5 µM came to 35 min.
For `COc1cccc2c1NC(=O)[C@@H](NC(=O)[C@H](CCC(F)(F)F)[C@H](CCCF)C(N)=O)N=C2c1ccccc1` [Example 16, (2R,3S)-3-(3-Fluoropropyl)-N-((3S)-9-methoxy-2-oxo-5-phenyl-2,3-dihydro-1H-1,4-benzodiazepin-3-yl)-2-(3,3,3-trifluoropropyl)succinamide], the IC50 came to 15.4 nM in the data set with human Notch 3 and 7 nM with human Notch 1. Besides, the half-life at 0.5 µM in data set [1] was 88 min.
On to `COc1ccc2c(c1)NC(=O)[C@@H](NC(=O)[C@H](CCC(F)(F)F)[C@H](CCCF)C(N)=O)N=C2c1ccccc1` [Example 17, (2R,3S)-3-(3-Fluoropropyl)-N-((3S)-8-methoxy-2-oxo-5-phenyl-2,3-dihydro-1H-1,4-benzodiazepin-3-yl)-2-(3,3,3-trifluoropropyl)succinamide], for which the half-inhibitory concentration (IC50) in the data set on human Notch 3 worked out at 11 nM; with human Notch 1 it was 5.8 nM. For the same molecule, the half-life at 0.5 µM in data set [1] is greater than 120 min.
On the same counts, the results for `CC(F)(F)C[C@H](C(N)=O)[C@@H](CCC(F)(F)F)C(=O)N[C@H]1N=C(c2ccccc2)c2ccccc2NC1=O` [Example 18, (2R,3S)-3-(2,2-Difluoropropyl)-N-((3S)-2-oxo-5-phenyl-2,3-dihydro-1H-1,4-benzodiazepin-3-yl)-2-(3,3,3-trifluoropropyl)succinamide] are 10.8 nM, 2.7 nM and greater than 120 min.
On the same counts, the results for `C[C@@H](C[C@H](C(N)=O)[C@@H](CCC(F)(F)F)C(=O)N[C@H]1N=C(c2ccccc2)c2cccc(F)c2NC1=O)C(F)(F)F` [Example 19, (2R,3S)—N-((3S)-9-Fluoro-2-oxo-5-phenyl-2,3-dihydro-1H-1,4-benzodiazepin-3-yl)-3-((2S)-3,3,3-trifluoro-2-methylpropyl)-2-(3,3,3-trifluoropropyl)succinamide] are 2.4 nM, 2.9 nM and 80 min.
The corresponding values for `NC(=O)[C@@H](CCCF)[C@@H](CCC(F)(F)F)C(=O)N[C@H]1N=C(c2ccccc2)c2cccc(Cl)c2NC1=O` [Example 20, (2R,3S)—N-((3S)-9-Chloro-2-oxo-5-phenyl-2,3-dihydro-1H-1,4-benzodiazepin-3-yl)-3-(3-fluoropropyl)-2-(3,3,3-trifluoropropyl)succinamide] are 16.5 nM, 10.8 nM and 107 min.
With `COc1cccc2c1NC(=O)[C@@H](NC(=O)[C@H](CCC(F)(F)F)[C@H](CCC(C)(F)F)C(N)=O)N=C2c1ccccc1` [Example 21], the IC50 in the data set on human Notch 3 was determined as 13.8 nM; in the data set with human Notch 1, 7.5 nM. The half-life at 0.5 µM in data set [1] is 76 min.
The corresponding values for `C[C@H](C[C@H](C(N)=O)[C@@H](CCC(F)(F)F)C(=O)N[C@H]1N=C(c2ccccc2)c2cccc(Cl)c2NC1=O)C(F)(F)F` [Example 22, (2R,3S)—N-((3S)-9-Chloro-2-oxo-5-phenyl-2,3-dihydro-1H-1,4-benzodiazepin-3-yl)-3-((2R)-3,3,3-trifluoro-2-methylpropyl)-2-(3,3,3-trifluoropropyl)succinamide] are 9.3 nM, 3.2 nM and 117 min.
On the same counts, the results for `C[C@@H](C[C@H](C(N)=O)[C@@H](CCC(F)(F)F)C(=O)N[C@H]1N=C(c2ccccc2)c2cccc(Cl)c2NC1=O)C(F)(F)F` [Example 23, (2R,3S)—N-((3S)-9-Chloro-2-oxo-5-phenyl-2,3-dihydro-1H-1,4-benzodiazepin-3-yl)-3-((2S)-3,3,3-trifluoro-2-methylpropyl)-2-(3,3,3-trifluoropropyl)succinamide] are 3.2 nM, 5.1 nM and 111 min.
The corresponding values for `CC(F)(F)CC[C@H](C(N)=O)[C@@H](CCC(F)(F)F)C(=O)N[C@H]1N=C(c2ccccc2)c2cccc(Cl)c2NC1=O` [Example 24, (2R,3S)—N-((3S)-9-Chloro-2-oxo-5-phenyl-2,3-dihydro-1H-1,4-benzodiazepin-3-yl)-3-(3,3-difluorobutyl)-2-(3,3,3-trifluoropropyl)succinamide] are 5.4 nM, 3.9 nM and greater than 120 min.
As for `Cc1cccc2c1NC(=O)[C@@H](NC(=O)[C@H](CCC(F)(F)F)[C@H](CC1(F)CCC1)C(N)=O)N=C2c1ccccc1` [Example 25, (2R,3S)-3-((1-Fluorocyclobutyl)methyl)-N-((3S)-9-methyl-2-oxo-5-phenyl-2,3-dihydro-1H-1,4-benzodiazepin-3-yl)-2-(3,3,3-trifluoropropyl)succinamide], the IC50 in the data set with human Notch 3 worked out at 20.1 nM; with human Notch 1 it was 3.8 nM. Besides, the half-life at 0.5 µM in data set [1] worked out at 33 min.

Usually IC50 stands for the concentration needed to halve the response being measured.

Source of the values: US9427442B2, “Fluoroalkyl and fluorocycloalkyl 1,4-benzodiazepinone compounds” (BRISTOL-MYERS SQUIBB COMPANY, priority 2012, dated 2016).
